Experimental data published in US7407961B2, “Pyrazine derivatives and pharmaceutical use thereof” (Astellas Pharma Inc., priority 2003, dated 2008).

Tests used:
[1] = target: T1, human A1 receptor (Homo sapiens, UniProt P30542); assay: Adenosine antagonistic activity, radioligand binding with [3H]DPCPX; conditions: [3H]DPCPX 4.5 nM
T1 sequence (P30542 1-326): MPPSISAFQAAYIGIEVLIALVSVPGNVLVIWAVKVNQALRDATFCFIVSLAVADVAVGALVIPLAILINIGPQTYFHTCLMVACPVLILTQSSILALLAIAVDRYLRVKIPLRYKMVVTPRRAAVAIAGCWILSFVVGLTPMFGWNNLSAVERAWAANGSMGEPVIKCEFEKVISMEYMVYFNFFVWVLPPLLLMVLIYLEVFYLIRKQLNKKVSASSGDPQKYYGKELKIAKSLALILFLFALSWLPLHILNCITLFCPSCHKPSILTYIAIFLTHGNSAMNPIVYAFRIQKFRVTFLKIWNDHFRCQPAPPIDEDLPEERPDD
Procedure: (§1) Test 1: Adenosine Antagonistic Activity
(§2) The adenosine antagonistic activity [Ki(nM)] of the test compound was examined by radioligand binding techniques using 8-cyclopentyl-1,3-dipropylxanthine, [dipropyl-2,3-^3H(N)] ([^3H]DPCPX, 4.5 nM) for human A1 receptor and [^3H]CGS 21680 (20 nM) for human A2a receptor.

[2] = system: ddY mice; assay: Anticatalepsy activity in mouse (haloperidol-induced catalepsy, bar test); type: in vivo; conditions: 3.2 mg/kg orally, ddY mice n=7; haloperidol 0.32 mg/kg i.p. 30 min later; measured 30 min after injection
Procedure: Test 2: Anticatalepsy Activity in Mouse [I] Test Method
The test compound (3.2 mg/kg) was administered orally with ddY mice (n=7). Then, haloperidol (0.32 mg/kg) was injected intraperitoneally 30 min. after the administration of the compound. Thirty min after the injection, the cataleptic responses of mice were measured. The forelimbs of each mouse were placed on a 3 cm high, 3 mm wide horizontal bar, and the duration of cataleptic posture was measured for up to 30 sec.

[3] = target: human A2a receptor (Homo sapiens, UniProt P29274); assay: Adenosine antagonistic activity, radioligand binding with [3H]CGS 21680; conditions: [3H]CGS 21680 20 nM
Procedure: as §1, §2

Sequence of human A2a receptor (P29274 whole entry): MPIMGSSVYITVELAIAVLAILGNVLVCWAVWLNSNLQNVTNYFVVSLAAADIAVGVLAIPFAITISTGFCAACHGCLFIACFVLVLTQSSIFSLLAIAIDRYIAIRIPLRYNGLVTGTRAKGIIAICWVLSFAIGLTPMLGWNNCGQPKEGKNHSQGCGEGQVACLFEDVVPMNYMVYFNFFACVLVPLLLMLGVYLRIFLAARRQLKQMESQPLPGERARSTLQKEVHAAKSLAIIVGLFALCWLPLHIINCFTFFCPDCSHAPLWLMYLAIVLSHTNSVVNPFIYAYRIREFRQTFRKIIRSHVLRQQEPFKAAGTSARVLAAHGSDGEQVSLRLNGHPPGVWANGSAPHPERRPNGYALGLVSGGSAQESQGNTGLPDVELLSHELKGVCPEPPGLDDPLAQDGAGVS

Question: Which Ki [1] does the source give for `CC(C)n1cc(-c2ncc(N)nc2-c2cc(F)cc(F)c2)ccc1=O` [Example 129, 5-[5-Amino-3-(3,5-difluorophenyl)-2-pyrazinyl]-1-isopropyl-2(1H)-pyridone] here?
Answer: 10.7 nM

Question: What about the “Manifestation rate of Catalepsy (number of mouse)” value (shortened to “Manifestation rate of Catalepsy”) [2] of the same compound?
Answer: 0/7

Question: And the Ki [3]?
Answer: 3.9 nM

Question: For `CC(C)n1cc(-c2nc(C(=O)NCCO)c(N)nc2-c2ccccc2)ccc1=O` [Example 49, 3-Amino-N-(2-hydroxyethyl)-6-(1-isopropyl-6-oxo-1,6-dihydro-3-pyridyl)-5-phenyl-2-pyrazinecarboxamide], which Ki [1] is on record?
Answer: 6.07 nM

Question: What about the “Manifestation rate of Catalepsy” value [2] of the same compound?
Answer: 1/7

Question: What about the Ki [3] of the same compound?
Answer: 1.69 nM

Question: Which results are given for `CCn1cc(-c2nc(C(N)=O)c(N)nc2-c2ccccc2)ccc1=O` [Example 4, 3-Amino-6-(1-ethyl-6-oxo-1,6-dihydro-3-pyridyl)-5-phenyl-2-pyrazinecarboxamide]?
Answer: Ki [1]: 5.09 nM; melting point: > 250 °C; Manifestation rate of Catalepsy (number of mouse) [2]: 0/7; Ki [3]: 2.34 nM

Question: Which results are given for `CC(C)n1cc(-c2nc(C(=O)NCC#N)c(N)nc2-c2ccccc2)ccc1=O` [Example 46, 3-Amino-N-(cyanomethyl)-6-(1-isopropyl-6-oxo-1,6-dihydro-3-pyridyl)-5-phenyl-2-pyrazinecarboxamide]?
Answer: Ki [1]: 5.25 nM; Manifestation rate of Catalepsy (number of mouse) [2]: 0/7; Ki [3]: 1.49 nM

Question: For `CC(C)n1cc(-c2nc(Oc3ccccc3)c(N)nc2-c2ccccc2)ccc1=O` [Example 151, 5-(5-amino-6-phenoxy-3-phenyl-2-pyrazinyl)-1-isopropyl-2(1H)-pyridone], which Ki [1] is on record?
Answer: 1.57 nM

Question: And the “Manifestation rate of Catalepsy” value [2]?
Answer: 0/7

Question: And the Ki [3]?
Answer: 0.32 nM

Question: With `Cn1cc(-c2nc(C#N)c(N)nc2-c2ccccc2)ccc1=O` [Example 11, 3-amino-6-(1-methyl-6-oxo-1,6-dihydro-3-pyridyl)-5-phenyl-2-pyrazinecarbonitrile] as the compound, how does the Ki [1] read?
Answer: 22.5 nM

Question: And the “Manifestation rate of Catalepsy” value [2]?
Answer: 0/7

Question: What about the Ki [3] of the same compound?
Answer: 2.35 nM

Question: With `CC(C)n1cc(-c2nc(CO)c(N)nc2-c2ccccc2)ccc1=O` [Example 47, 5-[5-amino-6-(hydroxymethyl)-3-phenyl-2-pyrazinyl]-1-isopropyl-2(1H)-pyridone] as the compound, how does the Ki [1] read?
Answer: 22.3 nM

Question: And the “Manifestation rate of Catalepsy” value [2]?
Answer: 1/7

Question: And the Ki [3]?
Answer: 7.52 nM

Question: For `CC(C)n1cc(-c2nc(C#N)c(N)nc2-c2ccc(F)c(F)c2)ccc1=O` [Example 39, 3-Amino-5-(3,4-difluorophenyl)-6-(1-isopropyl-6-oxo-1,6-dihydro-3-pyridyl)-2-pyrazinecarbonitrile], which Ki [1] is on record?
Answer: 24 nM

Question: What about the “Manifestation rate of Catalepsy” value [2] of the same compound?
Answer: 0/7

Question: And the Ki [3]?
Answer: 6.52 nM

Question: What does the source list for `CC(C)n1cc(-c2nc(Br)c(N)nc2-c2ccccc2)ccc1=O` [Example 141, 5-(5-amino-6-bromo-3-phenyl-2-pyrazinyl)-1-isopropyl-2(1H)-pyridone]?
Answer: Ki [1]: 0.61 nM; Manifestation rate of Catalepsy (number of mouse) [2]: 0/7; Ki [3]: 0.23 nM

Question: What does the source list for `CC(C)n1cc(-c2ncc(N)nc2-c2cccs2)ccc1=O` [Example 115, 5-[5-Amino-3-(2-thienyl)-2-pyrazinyl]-1-isopropyl-2(1H)-pyridone]?
Answer: Ki [1]: 4.89 nM; Manifestation rate of Catalepsy (number of mouse) [2]: 0/7; Ki [3]: 0.84 nM

Question: What does the source list for `CC(C)n1cc(-c2nc(-c3ccco3)c(N)nc2-c2ccccc2)ccc1=O` [Example 144, 5-[5-Amino-6-(2-furyl)-3-phenyl-2-pyrazinyl]-1-isopropyl-2(1H)-pyridone]?
Answer: Ki [1]: 1.78 nM; Manifestation rate of Catalepsy (number of mouse) [2]: 0/7; Ki [3]: 0.54 nM

Question: With `CC(C)n1cc(-c2nc(Br)c(N)nc2-c2ccccc2)cc(Br)c1=O` [Example 53, 5-(5-amino-6-bromo-3-phenyl-2-pyrazinyl)-3-bromo-1-isopropyl-2(1H)-pyridone] as the compound, how does the Ki [1] read?
Answer: 0.93 nM

Question: And the “Manifestation rate of Catalepsy” value [2]?
Answer: 0/7

Question: And the Ki [3]?
Answer: 0.91 nM

Question: For `CC(C)n1cc(-c2nc(C(N)=O)c(N)nc2-c2cc(F)cc(F)c2)ccc1=O` (hydrate or solvate) [Example 30, 3-Amino-5-(3,5-difluorophenyl)-6-(1-isopropyl-6-oxo-1,6-dihydro-3-pyridyl)-2-pyrazinecarboxamide], which melting point is on record?
Answer: 248.8 °C
